Reference: patent US7807703B2, “Substituted aryl ketones” (Bayer CropScience AG, priority 2002, dated 2010)

Experiment: log P determination by reversed-phase HPLC (EEC Directive 79/831 Annex V.A8; acidic or neutral mobile phase)
Type: physicochemical
Conditions: HPLC, reversed-phase C18, 43° C.; acidic range a): 0.1% aqueous phosphoric acid, acetonitrile, linear gradient 10% to 90% acetonitrile
Method: The log P values given in the table were determined in accordance with EEC Directive 79/831 Annex V.A8 by HPLC (High Performance Liquid Chromatography) using a reversed-phase column (C 18). Temperature: 43° C.
(a) Mobile phases for the determination in the acidic range: 0.1% aqueous phosphoric acid, acetonitrile; linear gradient from 10% acetonitrile to 90% acetonitrile—the corresponding measurement results are marked a) in Table 1.
(b) Mobile phases for the determination in the neutral range: 0.01 molar aqueous phosphate buffer solution, acetonitrile; linear gradient from 10% acetonitrile to 90% acetonitrile—the corresponding measurement results are marked b) in Table 1.

Question: For `CON(Cc1ccoc1)Cc1c(S(C)(=O)=O)ccc(C(=O)C2C(=O)CCCC2=O)c1Cl` [Example 428], which logP is on record?
Answer: The logP was “(I-2) logP = 3.10^a)”.

Question: Which logP does the source give for `COCCON(C)Cc1c(S(C)(=O)=O)ccc(C(=O)C2C(=O)CCCC2=O)c1Cl` [Example 429] here?
Answer: Its logP is “(I-2) logP = 2.43^a)”.

Question: Which logP does the source give for `CCn1ncc(C(=O)c2ccc(S(C)(=O)=O)c(CN(C)OCCOC)c2Cl)c1O` [Example 431] here?
Answer: Its logP is “(I-2) logP = 1.80^a)”.

Question: For `COCCON(C)Cc1c(S(C)(=O)=O)ccc(C(=O)C2C(=O)CCC(C)(C)C2=O)c1Cl` (centres unmarked) [Example 432], which logP is on record?
Answer: The logP was “(I-2) logP = 3.22^a)”.

Question: With `COCCON(C)Cc1c(S(C)(=O)=O)ccc(C(=O)c2cnn(C)c2O)c1Cl` [Example 433] as the compound, how does the logP read?
Answer: Its logP is “(I-2) logP = 1.51^a)”.

Question: For `CN(Cc1c(S(C)(=O)=O)ccc(C(=O)C2C(=O)CCCC2=O)c1Cl)OCC1CCOC1` (centres unmarked) [Example 434], which logP is on record?
Answer: Its logP is “(I-2) logP = 2.67^a)”.

Question: With `CCn1ncc(C(=O)c2ccc(S(C)(=O)=O)c(CN(C)OCC3CCOC3)c2Cl)c1O` (centres unmarked) [Example 435] as the compound, how does the logP read?
Answer: The logP was “(I-2) logP = 2.03^a)”.

Question: Which logP does the source give for `CN(Cc1c(S(C)(=O)=O)ccc(C(=O)C2C(=O)CCC(C)(C)C2=O)c1Cl)OCC1CCOC1` (centres unmarked) [Example 436] here?
Answer: Its logP is “(I-2) logP = 3.49^a)”.

Question: For `CN(Cc1c(S(C)(=O)=O)ccc(C(=O)c2cnn(C)c2O)c1Cl)OCC1CCOC1` (centres unmarked) [Example 437], which logP is on record?
Answer: The logP was “(I-2) logP = 1.73^a)”.

Question: For `CN(Cc1c(S(C)(=O)=O)ccc(C(=O)C2C(=O)CCCC2=O)c1Cl)OCC1CCCCO1` (centres unmarked) [Example 438], which logP is on record?
Answer: The logP was “(I-2) logP = 3.04^a)”.

Question: With `CCn1ncc(C(=O)c2ccc(S(C)(=O)=O)c(CN(C)OCC3CCCCO3)c2Cl)c1O` (centres unmarked) [Example 439] as the compound, how does the logP read?
Answer: The logP was “(I-2) logP = 2.35^a)”.

Question: With `CN(Cc1c(S(C)(=O)=O)ccc(C(=O)c2cnn(C)c2O)c1Cl)OCC1CCCCO1` (centres unmarked) [Example 440] as the compound, how does the logP read?
Answer: Its logP is “(I-2) logP = 2.01^a)”.

Question: For `CCn1ncc(C(=O)c2ccc(S(C)(=O)=O)c(CN(Cc3ccoc3)OC)c2Cl)c1O` [Example 441], which logP is on record?
Answer: The logP was “(I-2) logP = 2.39^a)”.

Question: Which logP does the source give for `CS(=O)(=O)c1ccc(C(=O)C2C(=O)CCCC2=O)c(Cl)c1CNOCCOc1ccccc1` [Example 442] here?
Answer: The logP was “(I-2) logP = 3.07^a)”.

Question: With `CCn1ncc(C(=O)c2ccc(S(C)(=O)=O)c(CN(C)OCC3CC3)c2Cl)c1O` [Example 443] as the compound, how does the logP read?
Answer: The logP was “(I-2) logP = 2.41^a)”.

Question: Which logP does the source give for `CN(Cc1c(S(C)(=O)=O)ccc(C(=O)C2C(=O)CCCC2=O)c1Cl)OCC1CC1` [Example 444] here?
Answer: The logP was “(I-2) logP = 3.14^a)”.

Question: For `CCn1ncc(C(=O)c2ccc(S(C)(=O)=O)c(CN(C)OCC3CC3)c2Cl)c1O` [Example 445], which logP is on record?
Answer: Its logP is “(I-2) logP = 2.05^a)”.

Question: Which logP does the source give for `CCON(Cc1c(S(C)(=O)=O)ccc(C(=O)C2C(=O)CCC(C)(C)C2=O)c1Cl)CC1CCOC1` (centres unmarked) [Example 446] here?
Answer: The logP was “(I-2) logP = 3.60^a)”.

Question: For `CCONCc1c(Cl)ccc(C(=O)C2C(=O)CCCC2=O)c1OC` [Example 447], which logP is on record?
Answer: The logP was “logP = 2.20^a)”.

Question: Which logP does the source give for `CCONCc1c(Cl)ccc(C(=O)c2cnn(CC)c2O)c1OC` [Example 448] here?
Answer: The logP was “logP = 3.60^a)”.

Question: For `CCONCc1c(Cl)ccc(C(=O)C2C(=O)CCC(C)(C)C2=O)c1Cl` (centres unmarked) [Example 449], which logP is on record?
Answer: Its logP is “(I-2) logP = 3.64^a)”.

Question: With `CCONCc1c(Cl)ccc(C(=O)c2cnn(C)c2O)c1Cl` [Example 450] as the compound, how does the logP read?
Answer: Its logP is “logP = 1.67^a)”.

Question: Which logP does the source give for `CCON(CC)Cc1c(S(C)(=O)=O)ccc(C(=O)c2cnn(CC)c2O)c1Cl` [Example 451] here?
Answer: The logP was “logP = 2.44^a)”.

Question: Which logP does the source give for `CCn1ncc(C(=O)c2ccc(S(C)(=O)=O)c(CN(C)S(C)(=O)=O)c2Cl)c1O` [Example 452] here?
Answer: The logP was “logP = 1.25^a)”.

Question: For `CN(Cc1c(S(C)(=O)=O)ccc(C(=O)c2cnn(C)c2O)c1Cl)S(C)(=O)=O` [Example 453], which logP is on record?
Answer: The logP was “logP = 0.99^a)”.

Question: Which logP does the source give for `CN(Cc1c(S(C)(=O)=O)ccc(C(=O)C2C(=O)CCCC2=O)c1Cl)S(C)(=O)=O` [Example 454] here?
Answer: The logP was “logP = 1.84^a)”.

Question: Which logP does the source give for `CN(Cc1c(S(C)(=O)=O)ccc(C(=O)C2C(=O)CCC(C)(C)C2=O)c1Cl)S(C)(=O)=O` (centres unmarked) [Example 455] here?
Answer: The logP was “(I-2) logP = 2.43^a)”.

Question: Which logP does the source give for `CCn1ncc(C(=O)c2ccc(Cl)c(CN(C)S(C)(=O)=O)c2Cl)c1O` [Example 456] here?
Answer: Its logP is “logP = 1.72^a)”.

Question: With `CN(Cc1c(Cl)ccc(C(=O)c2cnn(C)c2O)c1Cl)S(C)(=O)=O` [Example 457] as the compound, how does the logP read?
Answer: Its logP is “logP = 1.44^a)”.

Question: With `CN(Cc1c(Cl)ccc(C(=O)C2C(=O)CCCC2=O)c1Cl)S(C)(=O)=O` [Example 458] as the compound, how does the logP read?
Answer: Its logP is “logP = 2.32^a)”.

Question: Which logP does the source give for `CN(Cc1c(Cl)ccc(C(=O)C2C(=O)CCC(C)(C)C2=O)c1Cl)S(C)(=O)=O` (centres unmarked) [Example 459] here?
Answer: The logP was “(I-2) logP = 3.01^a)”.

Question: With `C=CCN(Cc1c(S(C)(=O)=O)ccc(C(=O)C2C(=O)CCCC2=O)c1Cl)S(C)(=O)=O` [Example 460] as the compound, how does the logP read?
Answer: Its logP is “logP = 2.17^a)”.

Question: For `C=CCN(Cc1c(S(C)(=O)=O)ccc(C(=O)c2cnn(CC)c2O)c1Cl)S(C)(=O)=O` [Example 461], which logP is on record?
Answer: Its logP is “logP = 1.63^a)”.

Question: With `CCN(Cc1c(Cl)ccc(C(=O)c2cnn(CC)c2O)c1OC)S(C)(=O)=O` [Example 462] as the compound, how does the logP read?
Answer: Its logP is “logP = 2.12^a)”.

Question: For `CCN(Cc1c(Cl)ccc(C(=O)c2cnn(C)c2O)c1OC)S(C)(=O)=O` [Example 463], which logP is on record?
Answer: Its logP is “logP = 1.80^a)”.

Question: With `CCN(Cc1c(Cl)ccc(C(=O)C2C(=O)CCCC2=O)c1OC)S(C)(=O)=O` [Example 464] as the compound, how does the logP read?
Answer: Its logP is “logP = 2.47^a)”.

Question: For `CCN(Cc1c(Cl)ccc(C(=O)C2C(=O)CCC(C)(C)C2=O)c1OC)S(C)(=O)=O` (centres unmarked) [Example 465], which logP is on record?
Answer: The logP was “(I-2) logP = 3.21^a)”.

Question: For `CCN(Cc1c(S(C)(=O)=O)ccc(C(=O)C2C(=O)CCC(C)(C)C2=O)c1Cl)S(C)(=O)=O` (centres unmarked) [Example 466], which logP is on record?
Answer: Its logP is “(I-2) logP = 2.64^a)”.

Question: With `CCN(Cc1c(S(C)(=O)=O)ccc(C(=O)C2C(=O)CCCC2=O)c1Cl)S(C)(=O)=O` [Example 467] as the compound, how does the logP read?
Answer: The logP was “logP = 2.02^a)”.

Question: With `CCN(Cc1c(S(C)(=O)=O)ccc(C(=O)c2cnn(CC)c2O)c1Cl)S(C)(=O)=O` [Example 468] as the compound, how does the logP read?
Answer: Its logP is “logP = 1.48^a)”.

Question: Which logP does the source give for `CCN(Cc1c(S(C)(=O)=O)ccc(C(=O)c2cnn(C)c2O)c1Cl)S(C)(=O)=O` [Example 469] here?
Answer: Its logP is “logP = 1.22^a)”.

Question: With `CCn1ncc(C(=O)c2ccc(Cl)c(CN(C)S(C)(=O)=O)c2OC)c1O` [Example 470] as the compound, how does the logP read?
Answer: The logP was “logP = 1.86^a)”.

Question: Which logP does the source give for `COc1c(C(=O)c2cnn(C)c2O)ccc(Cl)c1CN(C)S(C)(=O)=O` [Example 471] here?
Answer: Its logP is “logP = 1.55^a)”.

Question: Which logP does the source give for `COc1c(C(=O)C2C(=O)CCCC2=O)ccc(Cl)c1CN(C)S(C)(=O)=O` [Example 472] here?
Answer: Its logP is “logP = 2.20^a)”.

Question: For `COc1c(C(=O)C2C(=O)CCC(C)(C)C2=O)ccc(Cl)c1CN(C)S(C)(=O)=O` (centres unmarked) [Example 473], which logP is on record?
Answer: The logP was “(I-2) logP = 2.92^a)”.

Question: With `CCN(Cc1c(Cl)ccc(C(=O)C2C(=O)CC(C)CC2=O)c1OC)S(C)(=O)=O` (centres unmarked) [Example 474] as the compound, how does the logP read?
Answer: Its logP is “(I-2) logP = 2.81^a)”.

Question: For `CCN(Cc1c(S(C)(=O)=O)ccc(C(=O)C2C(=O)CC(C)CC2=O)c1Cl)S(C)(=O)=O` (centres unmarked) [Example 475], which logP is on record?
Answer: Its logP is “(I-2) logP = 2.32^a)”.

Question: With `COc1c(C(=O)C2C(=O)CC(C)CC2=O)ccc(Cl)c1CN(C)S(C)(=O)=O` (centres unmarked) [Example 476] as the compound, how does the logP read?
Answer: Its logP is “(I-2) logP = 2.56^a)”.

Question: With `COc1c(C(=O)C2C(=O)CCCC2=O)ccc(Cl)c1CN(C)OC` [Example 477] as the compound, how does the logP read?
Answer: Its logP is “logP = 2.63^a)”.

Question: Which logP does the source give for `COc1c(C(=O)c2cnn(C)c2O)ccc(Cl)c1CN(C)OC` [Example 478] here?
Answer: Its logP is “logP = 1.90^a)”.

Question: With `CCn1ncc(C(=O)c2ccc(Cl)c(CN(C)OC)c2OC)c1O` [Example 479] as the compound, how does the logP read?
Answer: The logP was “logP = 2.35^a)”.

Question: With `CCN(Cc1c(Cl)ccc(C(=O)c2cnn(C)c2O)c1Cl)OC` [Example 480] as the compound, how does the logP read?
Answer: Its logP is “logP = 2.46^a)”.

Question: With `CCN(Cc1c(Cl)ccc(C(=O)C2C(=O)CCC(C)(C)C2=O)c1Cl)OC` (centres unmarked) [Example 481] as the compound, how does the logP read?
Answer: Its logP is “(I-2) logP = 4.95^a)”.
